One assay concerns human UBC T24 cells. Briefly: Microinvasion assay (matrigel in Boyden chamber), M1-induced T24 cell invasion. The assay is classed as cell-based. On the procedure:
Microinvasion assays. Invasion was measured by assessment of human UBC T24 cell migration rate through an artificial basement membrane in a modified Boyden chamber (HTS Transwell System). Briefly, the membrane consisted of a polycarbonate filter with 0.4 μm pores diameter and was coated on ice with Matrigel (BD Biosciences) diluted 1:2 (v/v) in serum-free culture media. T24 cells (50×10^3 cells) were seeded into the Matrigel coat in the upper well of the chamber, while polarized M1 macrophages (50×10^3 cells) were seeded in the lower well. The polycarbonate filter with 0.4 μm pores diameter is too small to left the cells move to the bottom of the lower wells. Thus, non-invading cells into the matrigel coat were removed and cells that migrated down to the polycarbonate filter were stained with Hoescht 33258 dye after a 48-h incubation period, visualized by fluorescence microscopy and counted.

The subject of another assay is STAT1. Briefly: Western blot of phosphorylated STAT1 in IFNγ-activated human macrophages. It counts as cell-based. The note with it: human macrophages pretreated 30 min at 10 and 50 μM; 30 min activation with 50 U/mL IFNγ. On the procedure:
(§1) Cell signaling studies: THP1-derived human macrophages (750×10^3 cells/mL) and MB49-I cells (500×10^3 cells/mL) were pretreated for 30 min with vehicle (DMSO), compounds 4 and 5, at 10, 25 or 50 μM; and then washed and recovered immediately (t=0 min) or after 30 min of activation with 50 U/mL IFNγ, 25 ng/mL IL6, or 10 ng/mL TNFα. Cell lysates were prepared and analyzed by immunoblotting as described.^21-23,25 Briefly, protein samples were resolved by SDS-PAGE under reducing conditions and transferred onto a PVDF membrane. Blots were first probed with rabbit polyclonal antibodies against phospho-STAT1 (pSTAT1), pSTAT3, or p-IκB (all at 1:2000) overnight at 4° C. Blots were then incubated with HRP-conjugated goat anti-rabbit IgG Ab (1:3000) for 1 h at room temperature. The same blots were stripped and then probed with anti-STAT1 or anti-STAT3 Abs (both at 1:1000). In both cases, probed molecules were visualized using an enhancement chemiluminescence detection kit (Thermo Fisher Scientific).
In general terms: A western blot detects proteins with antibodies after separation by electrophoresis.

A further assay relates to MB49 tumors. Nature of the assay: Ectopic UBC model, non-muscle invasive MB49 tumors in male mice. The assay is classed as in vivo. The note with it: i.p. 90 and 150 μM. As to the method: (§2) Ectopic UBC model. Male C57BL/6J mice (6-8 weeks old), each weighing 15-18 g, were used for the experiments (supplied by Charles River). The mice were housed with free access to food and water on a 12:12 h light:dark cycle with the room temperature maintained at 21° C. MB49 cells, MB49-I cells, and iNOS-deficient MB49-I cells ([…] in 100 μL PBS) were injected subcutaneously (s.c.) into the right flank of the mice. Growth rates of the s.c. tumors were monitored. The size of tumors was determined every 3 days for 24-28 days using a digital caliper and by measuring luciferin luminescence at days 15 and 25 using the IVIS imaging system. A blinded observer measured tumor length and width. The volume of the tumor was calculated from the formula: Length×width2×0.52, where length and width were tumor diameters measured with calipers in mutually perpendicular directions. At a tumor size of approximately 10 mm^3 the mice were divided into different groups. A control group received PBS as treatment. As indicated, other groups were treated at different doses (90, 150 or 300 μM) with an intraperitoneal (i.p.) injection of compounds 4 or 8 every 3-4 days for 18-20 days.^24,27

The next assay deals with UBC cell line MB49-I. Nature of the assay: IFNγ/TNFα-induced NO production (Griess) in MB49-I cells. The assay is classed as cell-based, murine. The note with it: 10 and 50 μM. On the procedure:
(§3) Evaluation of NO and Urea production by chemical methods. The MB49-I cells and the J774A.1 cells (25×10^3 cells/well) were grown and pretreated, as indicated, with various anti-inflammatory derivatives, precursors and mono-functional derivatives for a period of 3 h. Afterwards the cells were washed twice with 10% FBS RPMI-1640 and then activated to produce NO for a period of 24 h with cytokines INFγ and TNFα. NO production was measured using the Griess reagent method as previously described.^27 This method involves the detection of nitrite ions (NO2^−) formed by the spontaneous oxidation of NO under physiological conditions. According the manufacture procedure (Life Technologies; # G-7921), equal volumes of sulfanilic acid and N-(1-naphthyl)ethylenediamine are mixed together to form the Griess reagent. In the presence of NO2^−, sulfanilic acid is converted to a diazonium salt, which in turn is coupled to N-(1-naphthyl)ethylenediamine to produce a pink coloration that is measured with a spectrophotometer (Biotek, synergy HT) at 548 nm. In the same manner, urea synthesis through arginase-1 activity was measured using commercially available kit.
(In general: Griess reagent forms a coloured azo dye with nitrite.)

For the next assay, the system named is MB49-I tumors. Briefly: Ectopic UBC model, MB49-I tumors implanted in the flank of male mice. The assay is classed as in vivo. As to the method:
as §2

Assay [1] deals with IκB / NFκB signaling pathway. Briefly: Western blot of phosphorylated IκB in LPS-activated RAW 264.7 cells. The assay is classed as cell-based, murine. The note with it: 90 min pretreatment at 20 and 37.5 μM, 100 ng/mL LPS 15 min.
The next assay relates to CD40. Nature of the assay: Flow cytometry of CD40 surface antigen in IFNγ-activated human macrophages. The assay is classed as cell-based. As to conditions: compound 4 at 10 μM, compound 5 at 25 μM. As to the method: Surface antigen expression analysis. To study membrane receptor expression, THP1-derived human macrophages (750×10^4 cells/mL) were pretreated for 3 h with DMSO or compounds 4 and 5, and then left untreated (control) or treated for 48 h with 50 U/mL IFNγ. The expression level of MHC-II and CD40 was evaluated by flow cytometry as described.^21-23
Background: In flow cytometry, cells or beads pass a laser one at a time.

For another assay, the system named is STAT3. Briefly: Western blot of phosphorylated STAT3 in IL6-activated human macrophages. It counts as cell-based. The note with it: human macrophages pretreated 30 min at 10 and 50 μM; 30 min activation with 25 ng/mL IL6. As to the method:
as §1

The subject of a further assay is MB49-I cells. Briefly: LPS/IFNγ-induced NO production in MB49-I cells. The assay is classed as cell-based, murine. As to conditions: compound 4 at 30 μM, compound 12 at 10, 20, 37.5 and 50 μM. On the procedure:
as §3, with “Afterwards the cells were washed twice with 10% FBS RPMI-1640 and then activated to produce NO for a period of 24 h with cytokines INFγ and TNFα.” left out

The test system of a further assay is peritoneal macrophages. Briefly: NO and urea production in peritoneal macrophages after in vivo treatment of MB49 tumor-bearing mice. The note with it: treatment at 90 and 150 μM; macrophages recovered day 26. As to the method:
as §3, with “According the manufacture procedure (Life Technologies; # G-7921), equal volumes of sulfanilic acid and N-(1-naphthyl)ethylenediamine are mixed together to form the Griess reagent.” left out
Ectopic UBC model. […] Growth rates of the s.c. tumors were monitored. The size of tumors was determined every 3 days for 24-28 days using a digital caliper and by measuring luciferin luminescence at days 15 and 25 using the IVIS imaging system. A blinded observer measured tumor length and width. […]

We go through one compound from US10759754B2, “Aminobenzoic acid derivatives for use as anti-inflammatory agents, anti-metastatic agents and/or anticancer agents” (3R VALO, S.E.C., priority 2016, dated 2020).

“Also recorded” adds a separate entry of the source.

On to `CC(C)(C)OC(=O)NNC(=O)c1ccc(N2C(=O)C=CC2=O)cc1` [Compound 4, N′-[4-(2,5-dioxo-2,5-dihydro-pyrrol-1-yl)-benzoyl]-hydrazine carboxylic acid tert-butyl ester], for which the “M1-induced human UBC T24 cell invasion” value with human UBC T24 cells was “efficiently inhibited”. For the same compound, the “IFNγ-induced STAT1 activation (ratio of phosphorylated/no phosphorylated proteins)” value in the assay on STAT1 is reported as “decreased; also recorded: efficiently inhibited”. Further, the “size of subcutaneously implanted MB49 tumors” value with MB49 tumors was “significant reduction; also recorded: significantly reduce”. Besides, the “combined IFNγ/TNFα-induced NO synthesis” value in the assay with UBC cell line MB49-I was “efficiently inhibited”. For the same compound, in the assay on MB49-I tumors (i.p. 150 μM), the “histological examination of lung specimens” value was “no metastatic foci”, the “number of lung metastases” value was “significant decrease; also recorded: significantly reduce”, the “size of subcutaneously implanted MB49-I tumors” value is recorded as “significantly reduce” and the “tumor development of MB49-I cells subcutaneously implanted” value was “significant decrease; also recorded: significantly affects”. Moreover, the “tumor volume of muscle-invasive MB49-I tumors” value in the assay on MB49-I tumors (i.p. 150 μM during 18 days, tumors recovered day 20) is “anti-proliferative activity”. Also, the “LPS-activated NFκB signaling pathway (ratio p-IkB/IkB)” value in [1] is listed as “efficient to inhibit”. In addition, in the assay on CD40, the “IFNγ-induced CD40 expression” value was “effective in reducing; also recorded: efficiently inhibited”. The “IL6-induced STAT3 activation (ratio of phosphorylated/no phosphorylated proteins)” value in the assay on STAT3 is “decreased; also recorded: efficiently inhibited”. Further, the “LPS/IFNγ-induced NO synthesis” value with MB49-I cells is on record as “inhibitory effect”. For the same compound, in the assay with peritoneal macrophages, the “NO production in peritoneal macrophages” value is recorded as “significant decrease; also recorded: significantly decrease”; the “urea synthesis and release in peritoneal macrophages” value is given as “significant decrease; also recorded: significantly decrease”.
